Laboratory results: article PMC6130618, “Bioactivity-guided isolation of anti-proliferative compounds from endemic Centaurea kilaea” (Pharmaceutical Biology, 2016)
≈ marks a conversion by molar mass, not a printed value. Where two headings read alike, the source gives them in different places.

Legend:
[1] = system: MCF-7 (breast adenocarcinoma); experiment: MTT anti-proliferative assay, MCF-7; type: cell-based; conditions: Homo sapiens, MCF7; MCF-7, MTT, 48 h, 0.5–50 μg/mL, mean ± SD; read-out: Cytotoxic activity IC50, MCF-7
Experimental: (§1) Anti-proliferative activity of compounds (0.5–50 μg/mL) against three human cancer cell lines were carried out by MTT test as specified in our previous study (Sen et al. [2015]). Compounds were tested for their cytotoxic activities. Cell viability and cytotoxic activity profile of the compounds were analyzed using the MTT assay (Mosman 1983; Woerdenbag et al. [1986]; Beekman et al. [1997]). MTT is cleaved to formazan by the ‘succinate-tetrazolium reductase’ system (EC 1.3.99.1) which belongs to the mitochondrial respiratory chain and is active only in viable cells. Different cell lines were used for the determination of cytotoxic activity [HeLa; (ATCC®, CCL- 2™), MCF-7 (ATCC®, HTB-22™), PC-3; (ATCC®, CRL-1435™)]. The cells were cultured with DMEM (Dulbecco’s Modified Eagle’s Medium) supplemented with 10% FBS (Foetal bovine serum), 1% L-glutamine and antibiotic solutions (penicillin–streptomycin–amphotericin).
(§2) In vitro cytotoxicity test was done by the method of modified Woerdenbag et al. ([1986]). The MTT metabolic assay was carried out with cells seeded at a density of 1 × 10^4 cells/well in 96-well flat-bottom cell culture plates with 100 μL of opti-MEM and 24–48 h incubation at 37 °C, 5% CO2. The following day, media was aspirated and the compounds were dissolved in DMSO and diluted with medium before they were added to the cell cultures at different concentrations. Cells were incubated for 48 h at 37 °C, 5% CO2. After the incubation period, 10 μL of the MTT labelling reagent [final concentration […] (Cell proliferation kit MTT, Roche, Germany)] was added to each well. The cultures were incubated for 4–12 h in a humidified atmosphere (e.g., 37 °C, 5% CO2) and 100 μL of the solubilization buffer was added into each well. The plate was allowed to stand overnight in the incubator in a humidified atmosphere (e.g., 37 °C, 5% CO2), the formazan precipitates were solubilized. Absorbance of the formazan product was measured spectrophotometrically at 550 and 690 nm.

[2] = system: Hela (cervix adenocarcinoma); experiment: MTT anti-proliferative assay, Hela; type: cell-based; conditions: Homo sapiens, 48 h, 0.5–50 μg/mL, mean ± SD, read-out: Cytotoxic activity IC50, Hela
Experimental: as §1, §2

[3] = system: PC-3 (prostate adenocarcinoma); experiment: MTT anti-proliferative assay, PC-3; type: cell-based; conditions: Homo sapiens; PC-3, MCF-7 excluded; PC-3, MTT, 48 h, 0.5–50 μg/mL, mean ± SD; read-out: Cytotoxic activity IC50, PC-3
Experimental: as §1, §2

[4] = MTT cytotoxicity assay, normal cell line L-929; type: cell-based; conditions: L-929 mouse fibroblast cells (normal cell line), L-929 normal mouse fibroblast, 0.5–50 μg/mL, mean ± SD, read-out: Cytotoxic activity IC50, L-929
Experimental: [Worded in the source for another cell line; this cell line is reported under the same test.] as §1, §2

MCF-7 cell lines = system: MCF-7 cell lines; parameters: method as in Bruno et al. [2005]; Csapi et al. [2010]; conditions: ref Bruno et al. [2005], Csapi et al. [2010], cited from earlier work; for Activity on MCF-7 cell lines: same value converted
[5] = system: human malignant melanoma (SK-MEL) cells; parameters: method as in Erel et al. ([2011]); conditions: ref Erel et al. ([2011]); cited from earlier work
[6] = system: human ductal carcinoma (BT-549) cells; parameters: method as in Erel et al. ([2011]); conditions: ref Erel et al. ([2011]); cited from earlier work

SMILES	IC50 [1]	IC50 [2]	IC50 [3]	IC50 at 48 h [4]	Activity on MCF-7 cell lines (MCF-7 cell lines; another study)	IC50 (MCF-7 cell lines; another study)	Activity on MCF-7 cell lines (MCF-7 cell lines; previous study)	IC50 (MCF-7 cell lines; previous study)	Cytotoxic effect, SK-MEL [5]	Cytotoxic effect, BT-549 [6]
O=c1cc(-c2ccc(O)cc2)oc2cc(O)cc(O)c12 [Apigenin]	> 50 µg/mL	> 50 µg/mL	44.13 ± 0.33 µg/mL (≈ 163 µM)	> 50 µg/mL	–	–	–	–	–	–
C=C[C@]1(C)C[C@H](O)[C@H]2C(=C)C(=O)O[C@@H]2[C@H]1C(=C)CO [Dehydromelitensin]	28.9 ± 0.95 µg/mL (≈ 110 µM)	> 50 µg/mL	25 ± 0.44 µg/mL (≈ 94.6 µM)	> 50 µg/mL	–	–	–	–	–	–
COc1cc(-c2cc(=O)c3c(O)c(OC)c(O)cc3o2)ccc1O [Jaceosidin]	> 50 µg/mL	> 50 µg/mL	> 50 µg/mL	> 50 µg/mL	–	–	–	–	–	–
C=C1CC[C@]2(C)CC[C@]3(C)[C@H](CC[C@@H]4[C@@]5(C)CC[C@H](O)C(C)(C)[C@@H]5CC[C@]43C)[C@H]2[C@@H]1C [Taraxasterol]	> 50 µg/mL	> 50 µg/mL	> 50 µg/mL	> 50 µg/mL	–	–	–	–	–	–
COc1ccc(-c2cc(=O)c3c(O)c(OC)c(OC)cc3o2)cc1OC [3′-O-Methyl eupatorin]	> 50 µg/mL	> 50 µg/mL	> 50 µg/mL	> 50 µg/mL	–	–	–	–	–	–
CC1(C)CC[C@]2(C(=O)O)CC[C@]3(C)C(=CC[C@@H]4[C@@]5(C)CC[C@H](O)C(C)(C)[C@@H]5CC[C@]43C)[C@@H]2C1 [Oleanolic acid]	> 50 µg/mL	> 50 µg/mL	45.38 ± 0.42 µg/mL (≈ 99.4 µM)	> 50 µg/mL	–	–	–	–	–	–
COc1ccc(-c2cc(=O)c3c(O)c(OC)c(OC)cc3o2)cc1 [Salvigenin]	> 50 µg/mL	> 50 µg/mL	> 50 µg/mL	> 50 µg/mL	–	–	–	–	–	–
COc1ccc(-c2cc(=O)c3c(O)c(OC)c(O)cc3o2)cc1 [Pectolinarigenin]	35.5 ± 2.7 µg/mL (≈ 113 µM)	> 50 µg/mL	> 50 µg/mL	> 50 µg/mL	–	–	–	–	–	–
C=C1C(=O)O[C@@H]2/C=C(\CO)CC/C=C(\C)C[C@H](OC(=O)C(=C)[C@@H](O)CO)[C@@H]12 [Cnicin]	3.25 ± 0.03 µg/mL (≈ 8.59 µM)	> 50 µg/mL	31.5 ± 0.71 µg/mL (≈ 83.3 µM)	> 50 µg/mL	6.37 µg/mL	16.8 µM	1.59 µg/mL	4.2 µM	cytotoxic effect	cytotoxic effect
COc1cc2oc(-c3ccc(O)cc3)cc(=O)c2c(O)c1OC [Cirsimaritin]	> 50 µg/mL	> 50 µg/mL	4.3 ± 1.55 µg/mL (≈ 13.7 µM)	> 50 µg/mL	–	–	–	–	–	–
COc1ccc(-c2cc(=O)c3c(O)c(OC)c(OC)cc3o2)cc1O [Eupatorin]	> 50 µg/mL	> 50 µg/mL	35.69 ± 0.3 µg/mL (≈ 104 µM)	> 50 µg/mL	–	–	–	–	–	–
